# Data published in patent US20230227406A1, “MODULATORS OF E3 LIGASES” (Rekindle Therapeutics Inc., priority 2020, published 2023).
# How the values were obtained:
# [1] = system: phosphorylated AKT and phosphorylated Ribosomal Protein S6; experiment: Western blot of AKT and S6 phosphorylation in BT-20 cells; assay type: cell-based, human; conditions: indicated doses
# Source text: (§1) The data presented here are consistent with the previous replicate in Hs578T cells, and the observation is preserved in another TNBC cell line, BT-20. COMPOUND 1 reduces the phospho-AKT/vinculin loading control and phospho-S6/total S6 ratios. Methods are the same as the previous replicate, using the indicated doses.
# The data presented here are consistent with the previous replicate in Hs578T cells. COMPOUND 6 reduces the phospho-AKT/vinculin loading control and phospho-S6/total S6 ratios in BT-20 cells. Methods are the same as the previous replicate, using the indicated doses.
# DU-145 cells = experiment: Cellular proliferation assay (MTS) in DU-145 cells; assay type: cell-based; conditions: Homo sapiens, 72 hours of incubation, read-out: IC50 values for selected compounds in DU-145 cells
# Method: DU-145 cells were trypsinized, counted via Trypan blue method and resuspended in DMEM complete medium (10% FBS with Pen-strep antibiotics) as described in Lieu et al, Mol Cel Endorinol, 87:19-28, 1992. Cells were seeded at a density of 100 cells per well in 1001 volume of 96-well cell culture plate and were incubated overnight at 37° C. in 5% CO2 incubator. The next day, cells were given fresh media and the test compounds were added in different concentrations. After 72 hours of incubation, MTS reagent (procured from Promega) was added to the cells and they were incubated for an additional 2 hours. Finally, the plates read in the absorbance mode at 490 nm using an ELISA plate reader (Perkin Elmer Victor X3 plate reader). The % growth values were calculated as [(T−T0)/(C−T0)]×100, where T0 is the OD of cells at the time of compound addition, C is the vehicle control, T is the OD of the test concentrations at 72 hours. Percentage inhibition values were calculated using 100−([(T−T0)/(C−T0)]×100). IC50 values were calculated in graph pad prism software using dose response curve nonlinear regression method.
# PD-L1 = experiment: Western blot of PD-L1 in BT-20 cells; assay type: cell-based, human; conditions: indicated doses
# Source text: as §1, with “increases PD-L1 levels and” for “reduces”, “glycosylated PD-L1/non-glycosylated PD-L1 ratio.” for “phospho-AKT/vinculin loading control and phospho-S6/total S6 ratios.”
# The data presented here are consistent with the previous replicate in Hs578T cells. COMPOUND 6 reduces the PD-L1/vinculin loading control ratio in BT-20 cells. […] Methods are the same as the previous replicate, using the indicated doses.
# [2] = system: phosphorylated AKT and phosphorylated Ribosomal Protein S6; experiment: Western blot of AKT and S6 phosphorylation in Hs578T cells; assay type: cell-based, human; conditions: 48 hours, indicated concentrations
# Method: Hs578T cells (human triple negative breast cancer) were treated with the indicated concentration of COMPOUND 1 for 48 hours prior to harvesting. The “0” concentration is DMSO only (0.5%, same as was used for compound doses). […] Analysis occurred via western blot using the indicated antibodies. Quantification by densitometry of the bands from the western blot are presented for phosphorylated AKT/Total AKT and phosphorylated Ribosomal Protein S6/Total Ribosomal Protein S6. COMPOUND 1 reduced both AKT and S6 phosphorylation relative to their respective total protein levels.
# as §1
# Hs578T cells (human triple negative breast cancer) were treated with the indicated concentration of COMPOUND 6 for 48 hours prior to harvesting. The “0” concentration is DMSO only (0.5%, same as was used for compound doses). […] Analysis occurred via western blot using the indicated antibodies.
# The data presented here are consistent with the previous replicate in Hs578T cells. COMPOUND 6 reduces the phospho-AKT/vinculin loading control and phospho-S6/total S6 ratios. Methods are the same as the previous replicate, using the indicated doses.
# Hs578T cells (human triple negative breast cancer) were treated with the indicated concentration of COMPOUND 7 for 48 hours before harvesting. The “0” concentration is DMSO only (0.5%, same as was used for compound doses). […] Analysis occurred via western blot using the indicated antibodies.
# The data presented here are consistent with the previous replicate in Hs578T cells. COMPOUND 7 reduces the phospho-S6/vinculin loading control ratio. Methods are the same as the previous replicate, using the indicated doses.
# Hs578T cells (human triple negative breast cancer) were treated with the indicated concentration of COMPOUND 8 for 48 hours and then harvested. The “0” concentration is DMSO only (0.5%, same as was used for compound doses). […] Analysis occurred via western blot using the indicated antibodies.
# WWP1 = target: T1, WWP1 (Homo sapiens, UniProt Q9H0M0); experiment: In vitro WWP1-dependent ubiquitination of PTEN, western blot and LC-MS/MS; assay type: biochemical; conditions: 2 hours, indicated doses of inhibitor
# T1 construct: purchased Ubiquigent 63-0034-025/30033/D
# T1 sequence (Q9H0M0 whole entry): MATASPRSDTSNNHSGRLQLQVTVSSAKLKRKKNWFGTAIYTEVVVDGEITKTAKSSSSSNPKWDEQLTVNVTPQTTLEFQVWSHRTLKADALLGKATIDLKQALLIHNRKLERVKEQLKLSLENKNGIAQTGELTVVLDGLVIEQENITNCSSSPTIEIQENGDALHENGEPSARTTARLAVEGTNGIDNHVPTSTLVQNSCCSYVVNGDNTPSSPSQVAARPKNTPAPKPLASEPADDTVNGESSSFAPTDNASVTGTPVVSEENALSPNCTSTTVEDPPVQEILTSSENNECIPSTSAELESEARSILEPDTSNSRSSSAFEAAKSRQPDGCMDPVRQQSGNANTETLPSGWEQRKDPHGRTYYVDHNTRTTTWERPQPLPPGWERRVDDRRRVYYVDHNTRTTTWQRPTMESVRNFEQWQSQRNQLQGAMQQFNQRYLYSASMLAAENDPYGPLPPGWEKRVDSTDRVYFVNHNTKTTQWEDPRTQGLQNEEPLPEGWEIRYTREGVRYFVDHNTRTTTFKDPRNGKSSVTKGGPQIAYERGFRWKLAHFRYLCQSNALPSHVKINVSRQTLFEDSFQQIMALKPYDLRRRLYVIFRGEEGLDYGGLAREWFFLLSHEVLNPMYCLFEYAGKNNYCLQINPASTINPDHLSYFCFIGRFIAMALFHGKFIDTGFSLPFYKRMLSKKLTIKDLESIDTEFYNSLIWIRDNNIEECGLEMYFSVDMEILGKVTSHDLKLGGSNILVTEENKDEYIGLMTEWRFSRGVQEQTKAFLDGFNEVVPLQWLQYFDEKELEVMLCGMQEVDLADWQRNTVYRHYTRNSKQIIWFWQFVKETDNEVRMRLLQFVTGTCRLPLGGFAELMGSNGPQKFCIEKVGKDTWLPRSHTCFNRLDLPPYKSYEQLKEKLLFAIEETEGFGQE
# Method: In vitro ubiquitination reactions were carried out for 2 hours using the indicated doses of inhibitor. Increasing doses of inhibitor block PTEN substrate ubiquitination, which correlates with remaining free ubiquitin. The “0” concentration is DMSO only (0.5%, same as was used for compound doses). No E1 and No E3 negative controls are present (only free ubiquitin present). Analysis occurred by western blot using an anti-ubiquitin antibody. A fraction of these samples was digested with Trypsin/LysC and labeled with TMT quantification reagents prior to LC-MS/MS analysis.
# In vitro ubiquitination reactions were carried out for 2 hours using the indicated doses of inhibitor. Increasing doses of inhibitor block PTEN substrate ubiquitination, which correlates with remaining free ubiquitin. The “0” concentration is DMSO only (0.5%, same as was used for compound doses). No E1 and No E3 negative controls are present (only free ubiquitin present). Analysis occurred by western blot using an anti-ubiquitin antibody.
IC50 (DU-145 cells),Compound,phospho-AKT/vinculin loading control ratio [1],phospho-S6/total S6 ratio [1],PD-L1 glycosylation (glycosylated/non-glycosylated PD-L1 ratio) (PD-L1),PD-L1 levels (PD-L1/vinculin loading control ratio) (PD-L1),AKT phosphorylation (relative to total AKT or vinculin loading control) [2],S6 phosphorylation (relative to total S6 or vinculin loading control) [2],"WWP1 dependent ubiquitination of PTEN (western blot, anti-ubiquitin) (WWP1)"
8.08 µM,"C#CCNC(=O)c1ccc2c(Cc3c[nH]c4ccccc34)c[nH]c2c1 [Compound 6, 3-((1H-indol-3-yl)methyl)-N-(prop-2-yn-1-yl)-1H-indole-6-carboxamide]",reduces,reduces,probably reduces,reduces,reduces,reduces,–
5.01 µM,"C#CCN(CCO)C(=O)c1ccc2c(Cc3c[nH]c4ccccc34)c[nH]c2c1 [Compound 7, 3-((1H-indol-3-yl)methyl)-N-(2-hydroxyethyl)-N-(prop-2-yn-1-yl)-1H-indole-6-carboxamide]",–,–,–,–,reduced,reduces,"Inhibits WWP1-Dependent Ubiquitination of PTEN, in a Dose-Dependent Manner"
13.5 µM,"C#Cc1ccc2c(C=O)cn(-c3ccccc3)c2c1 [Compound 1, 6-ethynyl-1-phenyl-1H-indole-3-carbaldehyde]",reduces,reduces,increases,increases,reduces,reduces,–
